A short description of data set [1]: Rough solubility of the amorphous phosphate in solvents. The format is physicochemical. Conditions: thermodynamic from solid. The protocol: The rough solubility of the amorphous phosphate prepared in Example 1 was measured. During the test, about 2 mg of the amorphous phosphate prepared in Example 1 was weighed and put into a 3 mL glass bottle, the solvents listed in the following Table 8 were added separately at an amount of 20 microliters/each time, and it was observed whether the sample was completely dissolved. If the sample was still not dissolved completely after 2.0 mL of the solvents was added, the test ended.

A short description of data set [2]: XRPD of phosphate crystal form A after heating. The format is physicochemical. The following applies: heated for 48 h at 50° C. The source says:
After detection, the obtained solid was the crystal form A of phosphate, its XRPD data was shown in Table 9 below, its XRPD pattern was shown in FIG. 4, and its TGA chart and DSC chart were shown in FIG. 5. […] (peak temperatures) before decomposition.

Data set [3] in a line: PK/PD experiment of ICR mice: plasma concentration. The following applies: CD-1 (ICR), mouse, oral dose 3 mg/kg. The format is in vivo, CD-1 (ICR) mice. How it is done: (§1) Experimental animals: CD-1 (ICR) mice aged for 4 weeks and weighed for about 18-22 g.
(§2) Grouping and administration scheme: the mice were fed adaptively, randomly grouped according to the weight on the day before experiment, and fasted overnight. […] After the experimental grouping, the group provided separately for detecting the initial basic value of DPPIV was carried out blood sampling, and other animals were intragastrically administrated with the drug at an administration volume of 10 mL/kg, the blood was sampled after the administration, and all other animals were stimulated with glucose administration; the blood was sampled at 20 min, 40 min, 60 min and 120 min after the glucose administration, respectively, and the plasma concentration and the DPPIV activity were detected by using plasma.
Research on pharmacodynamics-plasma concentration correlation: blood samples were collected at time points of 1 h, 1.33 h, 1.67 h, 2 h and 3 h after administration, and the plasma concentration was measured. The drug exposure value (AUCeff0-3h) of the DPPIV-P1 increased with the increase of dose, which was 16.09 ng·h/mL, 52.65 ng·h/mL, 162.3 ng·h/mL and 542.28 ng·h/mL, respectively.

A short description of data set [4]: Weight of ICR mice of each group. Format: in vivo, CD-1 (ICR) mice. The following applies: individual animals, 3 mg/kg group, 3 mg/kg. How it is done:
as §1, §2

For data set [5], the system named is DIO mice. The data set can be described thus: Long-term administration on DIO mice: fasting blood glucose. Conditions: for Fasting blood glucose: 30 mg/kg daily intragastric. Format: in vivo.
Experimental: (§3) A solution with a certain concentration was prepared from the crystal form B of the phosphate, and the administration volume was 10 mL/kg.
(§4) Experimental animals: C57BL16 mice aged for 5 weeks and weighed for about 13-16 g.
(§5) Grouping and administration scheme: the mice were fed adaptively and divided into a normal control group and a model group which were fed with high-fat feed (Research diets, D 12492). When the fasting blood glucose of the mice was greater than or equal to 7 mM, it was considered that the mice had become DIO mice. The DIO mice could be selected for the hypoglycemic effect test. The DIO mice were stratified and randomly grouped according to the blood glucose and the weight. […] The weight and the fasting blood glucose were measured weekly; the food amount, the remaining food amount and the food intake were recorded; the mice were fasted overnight at the end of administration, the blood was sampled, and the free fatty acid (NEFA), total cholesterol (TCHO), triglyceride (TG), insulin and DPPIV activity were measured by using serum.
In data set [6] the test system is DIO mice. The data set can be described thus: Long-term administration on DIO mice: serum metabolic parameters (NEFA, TCHO, TG, insulin). The format is in vivo, C57BL16 mice. The following applies: 30 mg/kg, end of long-term administration. An excerpt: Experimental animals: […] Table 18 was a total data table of the metabolic parameters.
The nature of data set [7]: Long-term administration on DIO mice: weight, food intake, tolerance.
Experimental: as §3, §4, §5

Values after ≈ are worked out from the molar mass of the structure shown. Values joined by “and” are separate entries in the source; they are usually repeats but may differ in a detail not shown here. Equal values may be shown once.

The record followed here is US11046701B2, “Salt of cetagliptin, preparation method thereof, pharmaceutical composition, and use thereof” (CGENETECH (SUZHOU, CHINA) CO., LTD., priority 2018, dated 2021).

As for `C[C@@H]1c2cnc(C(F)(F)F)n2CCN1C(=O)C[C@H](N)Cc1cc(F)c(F)cc1F` [Example 1, (8R)-7-[(3R)-3-amino-1-oxo-4-(2,4,5-trifluorophenyl)butyl]-5,6,7,8-tetrahydro-8-methyl-3-(trifluoromethyl)imidazo[1,5-a]pyrazine], the solubility was 2.7 to 2.9 mg/mL (≈ 6.42 to 6.9 mM) in data set [1] (1,4-Dioxane, organic solvent or mixture); 38.3 to 57.5 mg/mL (≈ 91.1 to 137 mM) in data set [1] (2-MeTHF, organic solvent or mixture); 57.5 to 115 mg/mL (≈ 137 to 274 mM) in data set [1] (ACN, organic solvent or mixture); < 54 mg/mL in data set [1] (Acetic acid, organic solvent or mixture); 47.5 to 95 mg/mL (≈ 113 to 226 mM) in data set [1] (Acetone, organic solvent or mixture); < 1.3 mg/mL in data set [1] (CHCl3, organic solvent or mixture). The solubility in data set [1] (DCM, organic solvent or mixture) is < 1.1 mg/mL; in data set [1] (DMF, organic solvent or mixture), < 42 mg/mL; in data set [1] (DMSO, organic solvent or mixture), 46 to 115 mg/mL (≈ 109 to 274 mM); in data set [1] (EtOAc, organic solvent or mixture) it was < 1.1 mg/mL; in data set [1] (EtOH, organic solvent or mixture), 57.5 to 115 mg/mL (≈ 137 to 274 mM); in data set [1] (Heptane, organic solvent or mixture) it was < 1.3 mg/mL. Further, the solubility in data set [1] (Hexane, organic solvent or mixture) was < 1.2 mg/mL; in data set [1] (IPA, organic solvent or mixture), 38.3 to 57.5 mg/mL (≈ 91.1 to 137 mM); in data set [1] (IPAc, organic solvent or mixture), < 1.1 mg/mL; in data set [1] (MEK, organic solvent or mixture), 72.5 to 145 mg/mL (≈ 172 to 345 mM); in data set [1] (MIBK, organic solvent or mixture), < 1 mg/mL; in data set [1] (MTBE, organic solvent or mixture), < 0.9 mg/mL. For the same molecule, the solubility was 67.5 to 135 mg/mL (≈ 161 to 321 mM) in data set [1] (MeOH, organic solvent or mixture); 20 to 40 mg/mL (≈ 47.6 to 95.2 mM) in data set [1] (NMP, organic solvent or mixture); 46 to 115 mg/mL (≈ 109 to 274 mM) in data set [1] (THF, organic solvent or mixture); < 1 mg/mL in data set [1] (Toluene, organic solvent or mixture); < 1 mg/mL in data set [1] (cyclohexanol, organic solvent or mixture); 10 to 13.3 mg/mL (≈ 23.8 to 31.6 mM) in data set [1] (isoamyl alcohol, organic solvent or mixture). The solubility in data set [1] (isobutyl alcohol, organic solvent or mixture) was 3.8 to 4.7 mg/mL (≈ 9.04 to 11.2 mM); in data set [1] (n-amyl alcohol, organic solvent or mixture) it was 6.8 to 8.5 mg/mL (≈ 16.2 to 20.2 mM); in data set [1] (n-butyl alcohol, organic solvent or mixture), 60 to 120 mg/mL (≈ 143 to 285 mM); in data set [1] (organic solvent or mixture, 1- Octanol), < 0.9 mg/mL; in data set [1] (sec-butyl alcohol, organic solvent or mixture) it was < 1 mg/mL; in data set [1] (water, H2O) it was 21 to 42 mg/mL (≈ 50 to 99.9 mM).

Regarding `C[C@@H]1c2cnc(C(F)(F)F)n2CCN1C(=O)C[C@H](N)Cc1cc(F)c(F)cc1F` [phosphate crystal form A, (8R)-7-[(3R)-3-amino-1-oxo-4-(2,4,5-trifluorophenyl)butyl]-5,6,7,8-tetrahydro-8-methyl-3-(trifluoromethyl)imidazo[1,5-a]pyrazine], in data set [2], the “crystal form after heating (XRPD)” value is on record as “transformed into a phosphate crystal form B”.

Consider `N[C@@H](CC(=O)N1CCn2c(nnc2C(F)(F)F)C1)Cc1cc(F)c(F)cc1F` [Sitagliptin phosphate, reference compound], for which the concentration at 1 h in data set [3] (1 hour) worked out at 0.184 ± 0.0102 µg/mL. The same molecule displayed a concentration at 1.33 h in data set [3] (1.33 hours) of 0.159 ± 0.0466 µg/mL. For the same molecule, in data set [3] (1.67 hours), the concentration at 1.67 h was 0.152 ± 0.0151 µg/mL. This molecule yielded a concentration at 2 h in data set [3] (2 hours) of 0.142 ± 0.0196 µg/mL. In data set [3] (3 hours), this molecule had a concentration at 3 h of 0.0979 ± 0.0355 µg/mL. In addition, in data set [3] (read-out: Drug exposure (AUCeff0-3 h)), the AUC amounted to 0.37 µg·h/mL. Besides, the weight in data set [4] is 24.0 (3×) and 26.0 (2×) and 25.1 (2×) and 25.0 and 24.6 (2×) and 24.4 and 24.3 and 22.9 and 22.2 and 26.5; in data set [7] (30 mg/kg daily, D1) it was 37.2 ± 4.4 g; in data set [7] (30 mg/kg daily, D7), 35.3 ± 3.7 g; in data set [7] (30 mg/kg daily, D14), 34.4 ± 4.9 g; in data set [7] (30 mg/kg daily, D21), 37.2 ± 5.3 g; in data set [7] (30 mg/kg daily, D28), 39.5 ± 5.0 g. Moreover, in data set [7] (30 mg/kg, total data table of metabolic parameters (end of experiment)), the weight is given as 39.5 ± 5.0 g. The Fasting blood glucose in data set [5] (D 1) is 8.3 ± 1.1 mmol/L; in data set [5] (D 3), 6.8 ± 1.1 mmol/L; in data set [5] (D 7), 8.0 ± 1.2 mmol/L; in data set [5] (D 14), 8.5 ± 1.3 mmol/L; in data set [5] (D 21) it was 8.9 ± 0.9 mmol/L; in data set [5] (D 28) it was 8.6 ± 0.9 mmol/L. Besides, in data set [5] (individual animals, 30 mg/kg), the “fasting blood glucose data after the drug was administrated for 28 days” value is 8.9 and 8.3 and 8.4 and 7.8 and 9.1 and 8.2 and 9.8 and 7.9 (2×) and 8 and 10.8. For the same molecule, the “decrease of insulin compared with the model control group” value in data set [6] stood at 58.3%. For the same molecule, the “decrease of total cholesterol (TCHO) compared with the model control group” value in data set [6] is 25.4%. The “Serum NEFA” value in data set [6] (fasted overnight) is 1.11 ± 0.13 mmol/L. In addition, in data set [6] (fasted overnight), the “Serum TCHO” value is reported as 3.99 ± 0.798 mmol/L. Also, in data set [6] (fasted overnight), the “Serum TG” value worked out at 0.94 ± 0.15 mmol/L. Also, the Serum insulin in data set [6] (fasted overnight) was found to be 2.2 ± 1.38 ng/mL. Also, the Food intake in data set [7] (30 mg/kg) came out at 2.2 ± 5.0 g/day. Besides, the “weight after the drug was administrated for 28 days” value in data set [7] (individual animals, 30 mg/kg) was 39.9 (2×) and 31.0 and 34.8 and 41.6 and 32.2 and 40.5 and 40.8 and 45.6 and 47.1 and 41.0.

A word on the solubility: it is the dissolved amount per volume that the medium holds.
